Laboratory results reported in PubChem BioAssay AID1918947 (Molecular Pharmacology Branch, DTP, NCI, 2023).

Tested on: A498 complex spheroid viability
Assay: Anticancer human tumor A498 cell line growth inhibition;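 note: spheroids exposed to agents for seven days before readout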;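 for viability, T/C: 100% = DMSO vehicle-treated spheroids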
Settings: for IC50: curve of first compound; for viability, T/C: stronger effect = lower value
Text: Multicellular complex tumor spheroid response to LSD1 Inhibitor Iadademstat in combination with a variety of drugs and investigational agents in selected tumor cell lines
The current study was undertaken to assess response to LSD1 inhibitors in combination with standard-of-care drugs and investigational agents in solid tumor complex spheroid models as well as in the K-562 leukemia. Complex spheroids include a stromal component modeled by human endothelial cells (HUVEC) and fibroblasts modeled by human mesenchymal stem cells (MSCs). The concentration ranges selected for each drug and investigational agent were based upon clinically achievable concentrations if the clinical Cmax of the agent was known.
Compounds. The drugs and investigational agents used in this study are listed on Table 1. All of the agents used, including staurosporine (NSC755774) and gemcitabine (NSC613327), were obtained from the Developmental Therapeutics Program, NCI. FDA-approved anticancer drugs are available from the NCI at http://dtp.nci.nih.gov/branches/dscb/oncology_drugset_explanation.html. Drugs and investigational agents were >95% pure by proton nuclear magnetic resonance (NMR) and liquid chromatography/mass spectrometry (LC/MS). Stock solutions were prepared at 400x in DMSO, stored at -70 degrees C, and diluted in fresh medium prior to their use. The final concentration of DMSO in cell culture wells never exceeded 0.25% (v/v). The FDA-approved anticancer drug set is available from the Developmental Therapeutics Program at https://dtp.cancer.gov/organization/dscb/obtaining/available_plates.htm. All drugs and investigational agents were tested over a range starting from a high concentration at or near the clinical Cmax and decreasing in half-log increments. If the clinical Cmax for an agent had not been determined, the highest concentration tested was 10 microM.
Cell Lines. The patient-derived cancer cell (PDC) lines: 292921-168-R-J2-PDC, K24384-001-R-PDC, and 521955-158-R2-J5-PDC pancreatic carcinomas, 556581-035-R-J1 ovarian carcinoma, 324938-238-R-J1-PDC, 855422-203-R-J1-PDC and 883617-216-R-J1-PDC urothelial bladder carcinomas, 743489-274-T-PDC renal cell carcinoma, 138582-R-J1 Merkel cell tumor, K60290-347-R-J1 and K57222-313-R-J1-PDC glioblastomas, 653999-131-R-J2-PDC, LG0703-F948-PDC, and 349418-098-R-PDC non-small cell lung carcinomas, 885512-296-R-J2-PDC, 171881-019-R-J1-PDC breast carcinomas and 186277-243-T-J2-PDC and 233499-124-R-J2-PDC colon carcinomas were obtained from the NCI Patient-Derived Models Repository (PDMR, https://pdmr.cancer.gov). The established cell lines NCI/ADR-RES (RRID:CVCL_14520 and OVCAR-5 (RRID:CVCL_1628) ovarian carcinomas, 786-O (RRID:CVCL_1051) and A498 (RRID:CVCL_A498) renal cell carcinoma, NCI-H211 (ATCC, cat. CRL-5824; RRID:CVCL_1529), NCI-H196 (ATCC, cat. CRL-5823, RRID:CVCL_1509), SW 1271 (ATCC, cat. CRL-2177, RRID:CVCL_1716) and NCI-H1876 (ATCC, cat. CRL-5902, RRID:CVCL_1503) small cell lung carcinomas, MDA-MB-231 (RRID:CVCL_0062) and MDA-MB-468 (RRID:CVCL_0419)breast carcinomas (10-12). Pooled donor human umbilical vein endothelial cells (HUVEC, Lonza, cat. CC-2519) and human mesenchymal stem cells (hMSC, Lonza, cat. PT-2501) were purchased from Lonza (Walkersville, MD).
Cell Culture. All cells were maintained in an incubator at 37 degrees C and 5% CO2 with 95% humidity. The PDC lines were cultured according to standard operating procedures established by the NCI PDMR (https://pdmr.cancer.gov). Briefly all PDCs were thawed and cultured in Matrigel-coated flasks prepared with a working solution of 1X Ham's F-12 nutrient mix, without supplementation (Invitrogen, Waltham, MA, cat. 11765054), 100 U/mL penicillin-streptomycin (Invitrogen, cat. 15140122), and 2.5% Matrigel (Corning Inc., Corning, NY, cat. 354248) for the first three passages. […]

Structure (SMILES): COc1ccc([C@@H](O)c2cc(-c3ncnc4cc(N5CCOCC5)ccc34)c(F)cc2Cl)nn1 + NC1CCC(NC2CC2c2ccccc2)CC1
- IC50 (second compound 0.1 µM): 113 nM
- IC50 (second compound 0.316 µM): 154 nM
- IC50 (second compound 1 µM): 128 nM
- IC50 (second compound 3.16 µM): 130 nM
- IC50 (second compound 10 µM): 126 nM
- viability, T/C (second compound 0.1 µM, first compound 0.0316 µM): 80.5%
- viability, T/C (second compound 0.1 µM, first compound 0.1 µM): 53.5%
- viability, T/C (second compound 0.1 µM, first compound 0.316 µM): 28.8%
- viability, T/C (second compound 0.1 µM, first compound 1 µM): 20.4%
- viability, T/C (second compound 0.1 µM, first compound 3.16 µM): 11%
- viability, T/C (second compound 0.1 µM, first compound 10 µM): 6.4%
- viability, T/C (second compound 0.316 µM, first compound 0.0316 µM): 79.6%
- viability, T/C (second compound 0.316 µM, first compound 0.1 µM): 58.5%
- viability, T/C (second compound 0.316 µM, first compound 0.316 µM): 35.6%
- viability, T/C (second compound 0.316 µM, first compound 1 µM): 23.3%
- viability, T/C (second compound 0.316 µM, first compound 3.16 µM): 12%
- viability, T/C (second compound 0.316 µM, first compound 10 µM): 6.71%
- viability, T/C (second compound 1 µM, first compound 0.0316 µM): 70.6%
- viability, T/C (second compound 1 µM, first compound 0.1 µM): 55.2%
- viability, T/C (second compound 1 µM, first compound 0.316 µM): 32.8%
- viability, T/C (second compound 1 µM, first compound 1 µM): 19.6%
- viability, T/C (second compound 1 µM, first compound 3.16 µM): 10.3%
- viability, T/C (second compound 1 µM, first compound 10 µM): 6.44%
- viability, T/C (second compound 3.16 µM, first compound 0.0316 µM): 69.3%
- viability, T/C (second compound 3.16 µM, first compound 0.1 µM): 54.4%
- viability, T/C (second compound 3.16 µM, first compound 0.316 µM): 35.4%
- viability, T/C (second compound 3.16 µM, first compound 1 µM): 21%
- viability, T/C (second compound 3.16 µM, first compound 3.16 µM): 9.68%
- viability, T/C (second compound 3.16 µM, first compound 10 µM): 5.91%
- viability, T/C (second compound 10 µM, first compound 0.0316 µM): 66.8%
- viability, T/C (second compound 10 µM, first compound 0.1 µM): 54.1%
- viability, T/C (second compound 10 µM, first compound 0.316 µM): 35.2%
- viability, T/C (second compound 10 µM, first compound 1 µM): 23.5%
- viability, T/C (second compound 10 µM, first compound 3.16 µM): 10.1%
- viability, T/C (second compound 10 µM, first compound 10 µM): 5.83%

Structure (SMILES): Nc1ccccc1NC(=O)c1ccc(CNC(=O)OCc2cccnc2)cc1 + NC1CC1c1ccc(-c2cccc(O)c2)cc1
- IC50 (second compound 0.1 µM): 357 nM
- IC50 (second compound 0.316 µM): 333 nM
- IC50 (second compound 1 µM): 284 nM
- IC50 (second compound 3.16 µM): 362 nM
- IC50 (second compound 10 µM): 266 nM
- viability, T/C (second compound 0.1 µM, first compound 0.00949 µM): 89.5%
- viability, T/C (second compound 0.1 µM, first compound 0.03 µM): 88%
- viability, T/C (second compound 0.1 µM, first compound 0.0949 µM): 72.6%
- viability, T/C (second compound 0.1 µM, first compound 0.3 µM): 59.2%
- viability, T/C (second compound 0.1 µM, first compound 0.949 µM): 19.5%
- viability, T/C (second compound 0.1 µM, first compound 3 µM): 1.7%
- viability, T/C (second compound 0.316 µM, first compound 0.00949 µM): 93.1%
- viability, T/C (second compound 0.316 µM, first compound 0.03 µM): 95.4%
- viability, T/C (second compound 0.316 µM, first compound 0.0949 µM): 84.1%
- viability, T/C (second compound 0.316 µM, first compound 0.3 µM): 50.6%
- viability, T/C (second compound 0.316 µM, first compound 0.949 µM): 21.1%
- viability, T/C (second compound 0.316 µM, first compound 3 µM): 1.7%
- viability, T/C (second compound 1 µM, first compound 0.00949 µM): 88.3%
- viability, T/C (second compound 1 µM, first compound 0.03 µM): 89.3%
- viability, T/C (second compound 1 µM, first compound 0.0949 µM): 77.7%
- viability, T/C (second compound 1 µM, first compound 0.3 µM): 46%
- viability, T/C (second compound 1 µM, first compound 0.949 µM): 20.6%
- viability, T/C (second compound 1 µM, first compound 3 µM): 1.74%
- viability, T/C (second compound 3.16 µM, first compound 0.00949 µM): 81%
- viability, T/C (second compound 3.16 µM, first compound 0.03 µM): 87.5%
- viability, T/C (second compound 3.16 µM, first compound 0.0949 µM): 78.2%
- viability, T/C (second compound 3.16 µM, first compound 0.3 µM): 55.7%
- viability, T/C (second compound 3.16 µM, first compound 0.949 µM): 19.2%
- viability, T/C (second compound 3.16 µM, first compound 3 µM): 2.01%
- viability, T/C (second compound 10 µM, first compound 0.00949 µM): 86.2%
- viability, T/C (second compound 10 µM, first compound 0.03 µM): 78.6%
- viability, T/C (second compound 10 µM, first compound 0.0949 µM): 70.7%
- viability, T/C (second compound 10 µM, first compound 0.3 µM): 48.1%
- viability, T/C (second compound 10 µM, first compound 0.949 µM): 19.4%
- viability, T/C (second compound 10 µM, first compound 3 µM): 1.69%
